The values below come from ChEMBL document CHEMBL4321874 (J Med Chem, 2020).

A short description of series [1]: Drug metabolism assessed as (4bS)-2-(3-Methyl-1H-pyrazol-4-yl)-5,6,7,8-tetrahydropyrido-[1',2':3,4]imidazo[1,5-a]thieno[3,2-d]pyrimidin-12(4bH)-one formaldehyde adduct formation by measuring retention time at 5 nmol after 30 mins in presence of excess formaldehyde by QTOF-UPLC analysis. The settings on record: 0.5 h. The class given is physicochemical.
For series [2], the target named is Cyclin-dependent kinase 2/cyclin E1 (Homo sapiens, UniProt P24941). Description: Inhibition of N-terminal GST-tagged full-length human CDK2 (1 to 298 residues)/Cyclin E (1 to 410 residues) expressed in baculovirus expression system using histone H1 as susbtrate after 90 mins by Kinase-Glo luminescence assay. (Kinase-Glo reads ATP consumption through a luciferase reaction.)

Series [3] concerns the target Myotonin-protein kinase (Homo sapiens, UniProt Q09013). Description: Inhibition of kinase tracer 236 binding to recombinant full-length human GST-tagged DMPK expressed in baculovirus expression system by Lanthascreen Eu kinase binding assay. For orientation: TR-FRET usually uses a lanthanide donor and a delayed reading to cut background.
The nature of series [4]: Toxicity in BALB/c mouse xenografted with human COLO205 cells assessed as effect on body weight at 50 to 100 mg/kg , po adminstered BID for 14 days and measured every 2 to 3 days. The class given is organism-based. The settings on record: in vivo. In general terms: Xenograft models place foreign cells or tissue in a host animal.
Series [5] in a line: AUC(0 to 8 hrs) in mouse at 10 mg/kg, po dosed via cassette dosing. The class given is ADME, organism-based. The settings on record: in vivo. Details: time < 6 hr, dose 10 mg/kg, route oral.
For series [6], the target named is Homeodomain-interacting protein kinase 4 (Homo sapiens, UniProt Q8NE63). Nature of the series: Inhibition of recombinant full-length human N-terminal GST-tagged HIPK4 expressed in baculovirus expression system by Z'-LYTE assay.
The test system of series [7] is COLO 205. Nature of the series: Antitumour activity against human COLO205 cells xenografted in Balb/c mouse assessed as inhibition of tumor growth at 50 to 100 mg/kg, po administered BID for 14 days and measured every 2 to 3 days relative to untreated control. It counts as functional.
The target of series [8] is T1, Cell division cycle 7-related protein kinase (Homo sapiens, UniProt O00311). Description: Inhibition of ATP-specific reporter probe binding to CDC7 (unknown origin) assessed as equilibrium dissociation constant incubated for 60 mins by proteros reporter displacement assay.
The test system of series [9] is Mus musculus. Nature of the series: In vivo inhibition of CDC7 in BALB/c mouse xenografted with human COLO205 cells assessed as reduction in MCM2 phosphorylation at Ser40/41 residue in tumor at 100 mg/kg, po after 4 hrs by Western blot analysis. The class given is functional. The following applies: COLO 205, po.
Series [10] deals with T1, Cell division cycle 7-related protein kinase. Description: Inhibition of CDC7 in human HeLa cells assessed as inhibition of MCM2 phosphorylation at Ser40 residue in human HeLa cells after 7 hrs by Western blot analysis. It counts as cell-based.
The target in series [11] is Dual specificity protein kinase CLK1 (Homo sapiens, UniProt P49759). Nature of the series: Inhibition of recombinant human GST-tagged CLK1 catalytic domain (129 to 484 residues) expressed in Escherichia coli by Z'-LYTE assay.
The target of series [12] is T2, CDC7/DBF4 (Cell division cycle 7-related protein kinase/Activator of S phase kinase) (Homo sapiens, UniProt O00311). Description: Inhibition of N-terminal GST-fused full-length human CDC7 (1 to 574 end residues)/DBF4 (1 to 674 residues) expressed in baculovirus expression system using MCM2 as substrate preincubated with enzyme for 10 mins prior to 1 uM ATP addition by HTRF transcreener ADP assay.

In series [13] the target is Dual specificity tyrosine-phosphorylation-regulated kinase 1A (Homo sapiens, UniProt Q13627). Nature of the series: Inhibition of recombinant full-length human GST-tagged DYRK1A expressed in baculovirus expression system by Z'-LYTE assay.
Series [14] has as its target T2, CDC7/DBF4 (Cell division cycle 7-related protein kinase/Activator of S phase kinase). Nature of the series: Inhibition of N-terminal GST-fused full-length human CDC7 (1 to 574 end residues)/DBF4 (1 to 674 residues) expressed in baculovirus expression system using MCM2 as substrate in presence of 50 uM ATP by HTRF transcreener ADP assay.
Series [15] shares this target. Description: Inhibition of N-terminal GST-fused full-length human CDC7 (1 to 574 end residues)/DBF4 (1 to 674 residues) expressed in baculovirus expression system using MCM2 as substrate preincubated with enzyme for 60 mins prior to 50 uM ATP addition by HTRF transcreener ADP assay.
Series [16] in a line: Cmax in mouse at 10 mg/kg, po dosed via cassette dosing. The class given is ADME, organism-based. Details: dose 10 mg/kg, route oral. The settings on record: in vivo.
The target in series [17] is Death-associated protein kinase 1 (Homo sapiens, UniProt P53355). Nature of the series: Inhibition of recombinant human N-terminal GST-tagged DAPK1 catalytic domain (1 to 363 residues) expressed in baculovirus expression system by Adapta kinase assay.
Series [18] concerns the target CDK8/Cyclin C (Homo sapiens, UniProt P49336). Description: Inhibition of kinase tracer 236 binding to recombinant full-length human His-tagged CDK8/CyclinC expressed in baculovirus expression system by Lanthascreen Eu kinase binding assay.
In series [19] the test system is COLO 205. Nature of the series: Antiproliferative activity against human COLO205 cells assessed as reduction in cell growth after 3 days by CellTiter-Glo luminescence assay. The following applies: COLO 205, 72 h. It counts as functional, cell-based.
Series [20] concerns the target Rho-associated protein kinase 1 (Homo sapiens, UniProt Q13464). Description: Inhibition of N-terminal GST-tagged human ROCK1 catalytic domain (1 to 477 residues) expressed in baculovirus expression system using biotin-STK-substrate 2 as substrate preincubated with enzyme for 5 mins followed by ATP addition and measured after 2 hrs by TR-FRET assay.
Series [21] concerns the target Dual specificity tyrosine-phosphorylation-regulated kinase 1B (Homo sapiens, UniProt Q9Y463). Description: Inhibition of recombinant full-length human GST-tagged DYRK1B expressed in baculovirus expression system by Z'-LYTE assay.
A short description of series [22]: Drug metabolism in reaction buffer containing 20 mM HEPES, 10 mM Mg(OAc)2, and 1 mM DTT at pH 7.5.
The nature of series [23]: Drug metabolism in reaction buffer containing 50 mM HEPES, 0.1 mM orthovanadate, 0.01% BSA, 10 mM MgCl2, and 1 mM DTT at pH 7.5.
Series [24] in a line: Drug metabolism in aqueous media assessed as formaldehyde adduct formation at 5 nmol after 30 mins in presence of excess formaldehyde by QTOF-UPLC analysis.
The nature of series [25]: Drug metabolism in reaction buffer containing 25 mM HEPES, 0.1% Tween 20, 0.01% BSA, 10 mM Mg(OAc)2, and 1 mM DTT at pH 7.5.

Take `Cc1n[nH]cc1-c1cc2nc([C@@H]3CCCCN3)[nH]c(=O)c2s1`: in [1], the Retention_time is 4.31 min.
In the case of `Cc1n[nH]cc1-c1cc2nc([C@@H]3CCCCN3)[nH]c(=O)c2s1.Cl.Cl`, the half-maximal inhibitory concentration (IC50) (in general, the concentration that inhibits the measured activity by half) in series [2] is 6500 nM; in series [3], 64.6 nM; in series [6], 176 nM; in series [10], 36 nM; in series [11], 310 nM; in series [12], 0.44 nM. The IC50 in series [13] turned out to be 59 nM; in series [14], 120 nM; in [15], 0.41 nM; in [17], 203 nM; in [18], 351 nM; in series [20], 420 nM. The IC50 in series [21] stood at 78.6 nM. For the same compound, in [4], the Activity entry is given as “Non-Toxic”. The AUC(0-t) (as a rule, exposure summed from dosing to a finite time, without extrapolation to infinity) at 6 h in [5] worked out at 1350 ng·h/mL. For the same compound, in series [7], the T/C (usually the result in the treated group divided by that in the control group, in per cent) is listed as 6%. The Kd – broadly, the equilibrium constant for the complex coming apart – in series [8] came out at 1.96 nM. For the same compound, in [9], the inhibition in vivo (commonly the change of the read-out against control, counted positive when it falls) at 100 mg/kg stood at 72%. Further, in series [16], the Cmax (commonly the highest concentration seen after dosing) was 978 ng/mL. Besides, the EC50 (as a rule, the concentration needed to bring the measured effect to its halfway point) in series [19] stood at 130 nM.
As for `Cc1n[nH]cc1-c1cc2nc([C@@H]3CC4CCN3CC4)[nH]c(=O)c2s1` [SIMUROSERTIB], the Drug metabolism entry in series [22], in series [23], in series [24] and in [25] was “Metabolite not detected” in each case. The EC50 in series [19] stood at 81 nM.
